In experiment [1] the target is Disintegrin and metalloproteinase domain-containing protein 17 (Homo sapiens, UniProt P78536). Nature of the experiment: TACE Assay. Particulars: pH 9; 37 °C. On the procedure: Then, 15ng TACE was added to buffer solution containing 140μMTACE peptide substrate at a final volume of 50 μL. After incubation for 15 min at 37°C, the reaction was stopped with 25 μL of 1% TFA. An aliquot of 25μL of internal standard solution was then added and the solution mixture was analysed by HPLC.

Experiment [2] has as its target Matrix metalloproteinase-9 (Homo sapiens, UniProt P14780). The experiment can be described thus: MMP-9 Assay. Particulars: pH 7.5; 37 °C. How it is done:
The MMP-9 assay was performed in 50 mM Tris-HCl buffer (pH 7.5, 10mM CaCl2, 150mM NaCl, 0.05% Brij-35). […] After incubation for 25 min at 37°C, the reaction was stopped with 25 μL of 1% TFA. An aliquot of 25 μL internal standard solution was then added and the solution mixture was analysed by HPLC. […] After incubation for 30 min at 37°C, 2 μL of 3 nM MMP-9 substrate was added.

Sequence of Disintegrin and metalloproteinase domain-containing protein 17 (P78536 whole entry, the tested form may be a part): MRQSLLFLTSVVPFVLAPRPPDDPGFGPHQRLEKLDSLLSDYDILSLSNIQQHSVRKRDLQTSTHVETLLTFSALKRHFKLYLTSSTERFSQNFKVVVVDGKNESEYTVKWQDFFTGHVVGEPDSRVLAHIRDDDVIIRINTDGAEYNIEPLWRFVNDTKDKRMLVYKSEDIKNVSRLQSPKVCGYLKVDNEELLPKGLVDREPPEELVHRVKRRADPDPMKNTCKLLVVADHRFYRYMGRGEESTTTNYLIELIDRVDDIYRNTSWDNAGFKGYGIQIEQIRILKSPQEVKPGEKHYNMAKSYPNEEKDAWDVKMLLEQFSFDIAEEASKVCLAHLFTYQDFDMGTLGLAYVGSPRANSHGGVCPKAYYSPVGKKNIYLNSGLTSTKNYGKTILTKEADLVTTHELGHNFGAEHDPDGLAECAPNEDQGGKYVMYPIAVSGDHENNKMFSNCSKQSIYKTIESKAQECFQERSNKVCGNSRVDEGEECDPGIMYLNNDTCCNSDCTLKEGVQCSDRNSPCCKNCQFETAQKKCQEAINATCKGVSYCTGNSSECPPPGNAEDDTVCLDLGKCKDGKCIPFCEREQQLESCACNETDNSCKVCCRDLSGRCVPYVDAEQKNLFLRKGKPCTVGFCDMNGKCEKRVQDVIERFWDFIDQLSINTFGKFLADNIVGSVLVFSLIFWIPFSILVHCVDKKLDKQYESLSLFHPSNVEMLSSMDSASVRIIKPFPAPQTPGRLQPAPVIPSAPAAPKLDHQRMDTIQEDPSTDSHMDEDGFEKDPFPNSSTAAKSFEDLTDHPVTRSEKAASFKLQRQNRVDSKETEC
Sequence of Matrix metalloproteinase-9 (P14780 whole entry): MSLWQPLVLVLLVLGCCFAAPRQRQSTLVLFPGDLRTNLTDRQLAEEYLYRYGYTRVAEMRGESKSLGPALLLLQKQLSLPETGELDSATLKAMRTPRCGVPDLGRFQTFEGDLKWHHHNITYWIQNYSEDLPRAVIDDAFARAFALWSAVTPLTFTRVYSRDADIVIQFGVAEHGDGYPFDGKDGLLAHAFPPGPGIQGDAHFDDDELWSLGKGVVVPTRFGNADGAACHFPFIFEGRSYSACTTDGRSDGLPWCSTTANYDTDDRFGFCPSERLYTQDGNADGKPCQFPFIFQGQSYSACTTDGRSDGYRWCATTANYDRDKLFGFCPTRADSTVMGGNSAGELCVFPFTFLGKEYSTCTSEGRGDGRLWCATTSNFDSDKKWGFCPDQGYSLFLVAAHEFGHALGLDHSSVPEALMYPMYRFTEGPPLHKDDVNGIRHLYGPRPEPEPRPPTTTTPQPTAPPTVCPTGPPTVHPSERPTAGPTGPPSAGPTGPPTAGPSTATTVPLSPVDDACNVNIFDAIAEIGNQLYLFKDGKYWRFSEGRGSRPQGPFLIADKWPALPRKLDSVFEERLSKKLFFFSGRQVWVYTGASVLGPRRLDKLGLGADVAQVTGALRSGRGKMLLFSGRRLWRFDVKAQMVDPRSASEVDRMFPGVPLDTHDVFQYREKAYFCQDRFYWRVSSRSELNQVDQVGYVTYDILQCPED

On to `CNC(=O)[C@H](Cc1c[nH]c2ccccc12)NC(=O)[C@@H](CC(=O)NO)CC(C)C` [GM6001], for which the IC50 in experiment [1] worked out at 317 nM.

Regarding `O=C(Cc1cc2ccccc2oc1=O)NO` [Inhibitor A], the figures for the IC50 in experiment [1] and in experiment [2] were 175 nM and 537 nM, respectively.

As a reminder, the IC50 is the concentration needed to halve the response being measured. Higher therefore signals lower potency.

For the origin of these results see BindingDB's records for doi:10.3109/14756366.2010.487485 (Huazhong University of Science and Technology, 2011).
